The source of these data is patent US10047069B2, “Compositions comprising an inhibitor of lysine specific demethylase-1” (Celgene Quanticel Research, Inc., priority 2015, dated 2018).

Structures are written as SMILES. In brackets after ≈: the same amount, converted by molar mass.

Holding throughout (assay type): physicochemical
Data set [1] can be described thus: Thermodynamic solubility in FeSSIF. As to conditions: for solubility at 24 h / Solubility in FeSSiF: fed state simulated intestinal fluid (FeSSIF), equilibrated at 25° C. for 24 hours; for XRPD of residue: residue of the FeSSIF solubility test, analysed by XRPD as a damp solid. As to the method:
Solubility was determined by suspending sufficient compound in fed state simulated intestinal fluid (FeSSIF) to give a maximum final concentration of >3 mg/ml of the parent free-form of the compound. The suspension was equilibrated at 25° C. for 24 hours then the pH was measured. The suspension was then filtered through a glass fibre C filter. The residue was analysed by XRPD as a damp solid. The filtrate was diluted by an appropriate factor prior to analysis by HPLC. Quantitation by HPLC was performed with reference to a standard solution of approximately 0.2 mg/ml in DMSO. Different volumes of the standard, diluted and undiluted sample solutions were injected. The solubility was calculated using the peak areas determined by integration of the peak found at the same retention time as the principal peak in the standard injection. Analysis was performed on an Agilent HP1100 series system equipped with a diode array detector and using ChemStation software vB.04.03.

Data set [2] in a line: Stability post-storage at 40° C./75% RH assessed by XRPD. The settings on record: for Stability post-storage at 40° C./75% RH: form change assessed by XRPD. As to the method: (§1) Representative samples for the twenty-six forms were further analysed by NMR/IC and DSC. The stability of the samples after storage at 40° C./75% RH was also assessed by XRPD. Solubility in FeSSIF media was determined for selected samples. […] IC was employed to determine the molar equivalence for inorganic counterions, sulphate and phosphate.

Data set [3] in a line: Gravimetric vapor sorption (GVS). As to conditions: 25° C. As to the method: Sorption isotherms were obtained using a SMS DVS Intrinsic moisture sorption analyzer, controlled by DVS Intrinsic Control software v1.0.1.2 (or v 1.0.1.3). The sample temperature was maintained at 25° C. by the instrument controls. The humidity was controlled by mixing streams of dry and wet nitrogen, with a total flow rate of 200 ml/min. The relative humidity was measured by a calibrated Rotronic probe (dynamic range of 1.0-100% RH), located near the sample. The weight change, (mass relaxation) of the sample as a function of % RH was constantly monitored by the microbalance (accuracy±0.005 mg). Approximately 13 mg of sample was placed in a tared mesh stainless steel basket under ambient conditions. The sample was loaded and unloaded at 40% RH and 25° C. (typical room conditions). A moisture sorption isotherm was performed as outlined below (two scans giving one complete cycle). The standard isotherm was performed at 25° C. at 10% RH intervals over a 0%-90% RH range. Data analysis was carried out using Microsoft Excel using DVS Analysis Suite v6.2 (or 6.1 or 6.0). The sample was recovered after completion of the isotherm and re-analyzed by XRPD.

Data set [4] in a line: Thermal stability from onset of DSC events. As to conditions: onsets of DSC events greater than 200° C. As to the method:
DSC data were collected on a Mettler DSC 823E equipped with a 34 position auto-sampler. The instrument was calibrated for energy and temperature using certified indium. Typically, 0.9-6 mg of each sample, in a pin-holed aluminum pan, was heated at 10° C./min from 25° C. to 350° C. A nitrogen purge at 50 ml/min was maintained over the sample. The instrument control and data analysis software was STARe v12.1.
The twenty remaining forms have thermal events occurring from as low as ˜30° C. These may be solvated/hydrated forms.

Data set [5] in a line: Salt screen assessment compared to the HCl salt. Here is the method:
as §1

What is called solubility is the dissolved amount per volume that the medium holds. For the compound `COc1ccc(-c2c(-c3ccc(C#N)c(F)c3)nc(N3CCC(N)CC3)n(C)c2=O)cc1F.Cl` [HCL 1, 4-[2-(4-aminopiperidin-1-yl)-5-(3-fluoro-4-methoxyphenyl)-1-methyl-6-oxo-1,6-dihydropyrimidin-4-yl]-2-fluorobenzonitrile hydrochloride], the solubility at 24 h was 740 µg/mL in data set [1] (25 °C, pH 4.9, fessif, thermodynamic from solid) and 750 µg/mL in data set [1] (pH 4.9, thermodynamic from solid). Further, the XRPD of residue result in data set [1] is on record as “Amorphous”. Moreover, the “Stability after 14 days storage at 40° C./75% RH” value in data set [2] (14 days, confirmed by XRPD) is “Partial crystallization of a new form”. Besides, in data set [2], the “Stability post-storage at 40° C./75% RH” value is “Extra peaks observed”. In data set [3], the “uptake at 90% RH by GVS” value turned out to be 14%.

Turning to `COc1ccc(-c2c(-c3ccc(C#N)c(F)c3)nc(N3CCC(N)CC3)n(C)c2=O)cc1F` [PHOA 1, 4-[2-(4-aminopiperidin-1-yl)-5-(3-fluoro-4-methoxyphenyl)-1-methyl-6-oxo-1,6-dihydropyrimidin-4-yl]-2-fluorobenzonitrile], in data set [1], the “Solubility in FeSSiF” value is 740 µg/mL (≈ 1640 µM) and the XRPD of residue result was “Amorphous”. Besides, the “Stability post-storage at 40° C./75% RH” value in data set [2] was “No form change”. Further, the thermal stability result in data set [4] is “good thermal stability”. In addition, in data set [5], the “stability and solubility when compared to the HCl salt” value is “improved stability and solubility”.

As for `COc1ccc(-c2c(-c3ccc(C#N)c(F)c3)nc(N3CCC(N)CC3)n(C)c2=O)cc1F` [BA 1, 4-[2-(4-aminopiperidin-1-yl)-5-(3-fluoro-4-methoxyphenyl)-1-methyl-6-oxo-1,6-dihydropyrimidin-4-yl]-2-fluorobenzonitrile], in data set [1], the “Solubility in FeSSiF” value is 880 µg/mL (≈ 1950 µM) and the XRPD of residue entry is recorded as “Poor crystallinity”. Further, the “Stability post-storage at 40° C./75% RH” value in data set [2] is reported as “No significant”. Also, the thermal stability entry in data set [4] was “good thermal stability”. In data set [5], the “stability and solubility when compared to the HCl salt” value is “improved stability and solubility”.

For the compound `COc1ccc(-c2c(-c3ccc(C#N)c(F)c3)nc(N3CCC(N)CC3)n(C)c2=O)cc1F` [MSA 1, 4-[2-(4-aminopiperidin-1-yl)-5-(3-fluoro-4-methoxyphenyl)-1-methyl-6-oxo-1,6-dihydropyrimidin-4-yl]-2-fluorobenzonitrile], in data set [1], the “Solubility in FeSSiF” value is 1010 µg/mL (≈ 2240 µM) and the XRPD of residue result is reported as “Largely amorphous”. Also, the “Stability post-storage at 40° C./75% RH” value in data set [2] is listed as “No form change”. Further, the thermal stability result in data set [4] was “good thermal stability”. Besides, in data set [5], the “stability and solubility when compared to the HCl salt” value is “improved stability and solubility”.

In the case of `COc1ccc(-c2c(-c3ccc(C#N)c(F)c3)nc(N3CCC(N)CC3)n(C)c2=O)cc1F` [SO4 1, 4-[2-(4-aminopiperidin-1-yl)-5-(3-fluoro-4-methoxyphenyl)-1-methyl-6-oxo-1,6-dihydropyrimidin-4-yl]-2-fluorobenzonitrile], in data set [1], the “Solubility in FeSSiF” value is 720 µg/mL (≈ 1590 µM) and the XRPD of residue result was “Amorphous”. Besides, the “Stability post-storage at 40° C./75% RH” value in data set [2] is listed as “No form change”. Moreover, the thermal stability entry in data set [4] is recorded as “good thermal stability”. In addition, the “stability and solubility when compared to the HCl salt” value in data set [5] is “improved stability and solubility”.
